From US5399557A, “Pyrroloazepine compound” (Suntory Limited, priority 1991, dated 1995)
Counter-ions that a name gives are not always drawn.

Columns and labels:
[1] = test system: α1 receptor; test: Anti-α1 action: norepinephrine (NE)-induced tonic contraction of isolated thoracic aorta (helical strip); set-up: species or system Hartley male guinea pig; details: contraction induced by 10^-5 M norepinephrine taken as 100%, guinea pig thoracic aorta, 37° C, compounds marked * tested as hydrochloride; for Anti α1 action (% of Control), 10^-7 M: test drug 10^-7 M, 0.1 µM; for Anti α1 action (% of Control), 10^-8 M: test drug 10^-8 M, 0.01 µM
Protocol: The thoracic aorta of each Hartley male guinea pig (body weight: 300-500 g) was excised. A sample cut in a helical form was suspended under 1 g load in a Magnus cylinder filled with the Tyrode solution of 37° C. which had been saturated with a mixed gas consisting of 95% O2 +5% CO2. Using an isometric transducer ("TB-612J"/NIHON KOHDEN) and a pressure preamplifier ("AP-620G"/NIHON KOHDEN), variations in tension were measured. The measurement results were recorded on a thermal pen-writing recorder ("WT-647G"/NIHON KOHDEN).
Taking the tonic contraction induced by 10^- 5M norepinephrine (NE) as 100%, the percent contractions upon addition of each test drug at 10^-8 and 10^-7 M were determined as anti-α1 action.

[2] = target: T1, serotonin (5-HT) receptor (Cavia porcellus, UniProt A0A286Y537); test: Anti-serotonin action (anti-5-HT action): 5-HT-induced contraction of isolated superior mesenteric artery (helical strip); set-up: species or system Hartley male guinea pig; details: contraction induced by 10^-5 M serotonin taken as 100%, guinea pig superior mesenteric artery, 37° C, compounds marked * tested as hydrochloride; for remaining activity at 1 µM: test drug 10^-6 M, read-out: Anti 5-HT action (% of Control), 10^-6 M; for remaining activity at 0.1 µM: test drug 10^-7 M, read-out: Anti 5-HT action (% of Control), 10^-7 M
T1 construct: 5-HT-induced contraction
Protocol: (2) Anti-serotonin action (anti-5-HT action)
A sample cut in a helical form was suspended under 0.3 g load in a Magnus cylinder filled with the Tyrode solution of 37° C. which had been saturated with a mixed gas consisting of 95% O2 +5% CO2. Using an isometric transducer ("UL-10"/SHINKOH K.K.) and a pressure preamplifier ("DSA-605A"/SHINKOH K.K.), variations in tension were measured. The measurement results were recorded on a pen-writing recorder ("VP-6537A"/NATIONAL K.K.). Taking the contraction induced by 10^-5 M serotonin (5-HT) as 100%, the percent contractions induced by 10^-5 M 5-HT in the presence of each test drug at 10^-7 and 10^-6 M were determined as anti-5-HT action.

[3] = test system: platelet aggregation; test: Anti-platelet-aggregating action: platelet aggregation induced by ADP + 5-HT in platelet rich plasma; assay type: cell-based, Japanese white house rabbit; details: Oryctolagus cuniculus, test drug 10^-7 M, aggregation induced by 10^-6 M ADP + 10^-5 M 5-HT, 1 mM CaCl2 CaCl2, rabbit PRP, compound marked * (45) tested as hydrochloride, read-out: Inhibitory rate of platelet aggregation (%)
Protocol: (3) Anti-platelet-aggregating action
Blood was drawn from the auricular artery of Japanese white house rabbit (male, about 3 kg), whereby a platelet rich plasma sample (PRP) was prepared. Platelet aggregating ability was measured using a platelet aggregation measuring apparatus ("PAM-SC"/MEBANIX).
Found under the presence of 1 mM of CaCl2 was a controlling action of the test drug (10^-7 M) against the maximum reaction (100%) of the platelet aggregation induced by 10^-6 M of ADP+10^-5 M of 5-HT.

T1 sequence (A0A286Y537 1-470): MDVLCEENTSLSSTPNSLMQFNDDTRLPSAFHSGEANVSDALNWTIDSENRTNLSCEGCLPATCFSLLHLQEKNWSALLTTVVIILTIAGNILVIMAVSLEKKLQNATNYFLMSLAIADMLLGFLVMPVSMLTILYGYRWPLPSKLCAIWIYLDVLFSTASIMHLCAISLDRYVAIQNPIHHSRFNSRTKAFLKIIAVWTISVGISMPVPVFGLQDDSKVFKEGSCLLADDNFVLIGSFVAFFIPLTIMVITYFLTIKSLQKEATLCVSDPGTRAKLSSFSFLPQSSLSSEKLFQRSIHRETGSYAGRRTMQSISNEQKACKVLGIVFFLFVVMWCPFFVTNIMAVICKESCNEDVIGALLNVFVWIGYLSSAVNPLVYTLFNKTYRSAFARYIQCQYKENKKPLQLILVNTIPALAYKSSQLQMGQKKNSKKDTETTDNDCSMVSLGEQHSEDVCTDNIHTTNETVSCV

Cn1ccc2c1C(=O)N(CCCN1CCN(c3ccccc3)CC1)CCC2=O [Compound No. 18, 1-Methyl-7-[3-(4-phenylpiperazin-1-yl)propyl]-6,7-dihydropyrrolo[2,3-c]azepine-4,8(1H,5H)-dione]
Anti α1 action (% of Control), 10^-7 M [1]: 85.5 % of Control
Anti α1 action (% of Control), 10^-8 M [1]: 100.0 % of Control
remaining activity at 1 µM [2]: 16.3%
remaining activity at 0.1 µM [2]: 52.8%

CCn1ccc2c1C(=O)N(CCCN1CCN(c3ccccc3)CC1)CCC2=O [Compound No. 19, 1-Ethyl-7-[3-(4-phenylpiperazin-1-yl)propyl]-6,7-dihydropyrrolo[2,3-c]azepine-4,8(1H,5H)-dione]
Anti α1 action (% of Control), 10^-7 M [1]: 90.1 % of Control
Anti α1 action (% of Control), 10^-8 M [1]: 100.0 % of Control
remaining activity at 1 µM [2]: 12.4%
remaining activity at 0.1 µM [2]: 60.3%

Cn1ccc2c1C(=O)N(CCCN1CCN(c3ccccc3)CC1)CCC2O (centres unmarked) [Compound No. 39, 4-hydroxy-1-methyl-7-[3-(4-phenylpiperazin-1-yl)propyl]-4,5,6,7-tetrahydropyrrolo[2,3-c]azepin-8(1H)-one]
Anti α1 action (% of Control), 10^-7 M [1]: 80.5 % of Control
Anti α1 action (% of Control), 10^-8 M [1]: 99.3 % of Control
remaining activity at 1 µM [2]: 8.7%
remaining activity at 0.1 µM [2]: 34.3%
inhibition at 0.1 µM [3]: 33%

Cn1ccc2c1C(=O)N(CCCN1CCN(c3ccc(F)cc3)CC1)CCC2O (centres unmarked) [Compound No. 40, 7-[3-[4-(4-Fluorophenyl)piperazin-1-yl]propyl]-4-hydroxy-1-methyl-4,5,6,7-tetrahydropyrrolo[2,3-c]azepin-8(1H)-one]
Anti α1 action (% of Control), 10^-7 M [1]: 94.5 % of Control
Anti α1 action (% of Control), 10^-8 M [1]: 100.0 % of Control
remaining activity at 1 µM [2]: 12.5%
remaining activity at 0.1 µM [2]: 24.2%

Cn1ccc2c1C(=O)N(CCCN1CCC(C(=O)c3ccc(F)cc3)CC1)CCC2=NO [Compound No. 43]
Anti α1 action (% of Control), 10^-7 M [1]: 37.9 % of Control
Anti α1 action (% of Control), 10^-8 M [1]: 73.3 % of Control
remaining activity at 1 µM [2]: 8.7%
remaining activity at 0.1 µM [2]: 43.1%
inhibition at 0.1 µM [3]: 18%

Cn1ccc2c1C(=O)N(CCCN1CCN(c3ccccc3)CC1)CCC2=NO [Compound No. 45, 4-hydroxyimino-1-methyl-7-[3-(4-phenylpiperazin-1-yl)propyl]-4,5,6,7-tetrahydropyrrolo[2,3-c]azepin-8(1H)-one]
Anti α1 action (% of Control), 10^-7 M [1]: 23.8 % of Control
Anti α1 action (% of Control), 10^-8 M [1]: 79.8 % of Control
remaining activity at 0.1 µM [2]: 11.2%
inhibition at 0.1 µM [3]: 30%

CON=C1CCN(CCCN2CCN(c3ccccc3)CC2)C(=O)c2c1ccn2C [Compound No. 46, 4-Methoxyimino-1-methyl-7-[3-(4-phenylpiperazin-1-yl)propyl]-4,5,6,7-tetrahydropyrrolo[2,3-c]azepin-8(1H)-one]
Anti α1 action (% of Control), 10^-7 M [1]: 28.0 % of Control
Anti α1 action (% of Control), 10^-8 M [1]: 78.7 % of Control
remaining activity at 1 µM [2]: 12.8%
remaining activity at 0.1 µM [2]: 59.5%

CCn1ccc2c1C(=O)N(CCCN1CCN(c3ccccc3)CC1)CCC2=NO [Compound No. 47, 1-Ethyl-4-hydroxyimino-7-[3-(4-phenylpiperazin-1-yl)propyl]-4,5,6,7-tetrahydropyrrolo[2,3-c]azepin-8(1H)-one]
Anti α1 action (% of Control), 10^-7 M [1]: 81.9 % of Control
Anti α1 action (% of Control), 10^-8 M [1]: 100.0 % of Control
remaining activity at 0.1 µM [2]: 5.2%
inhibition at 0.1 µM [3]: 34%

O=C1c2c(ccn2Cc2ccccc2)C(=NO)CCN1CCCN1CCN(c2ccccc2)CC1 [Compound No. 48, 1-Benzyl-4-hydroxyimino-7-[3-(4-phenylpiperazin-1-yl)propyl]-4,5,6,7-tetrahydropyrrolo[2,3-c]azepin-8(1H)-one]
Anti α1 action (% of Control), 10^-7 M [1]: 60.5 % of Control
Anti α1 action (% of Control), 10^-8 M [1]: 98.9 % of Control
remaining activity at 1 µM [2]: 5.1%
remaining activity at 0.1 µM [2]: 52.8%

COc1cccc(N2CCN(CCCN3CCC(=NO)c4ccn(C)c4C3=O)CC2)c1 [Compound No. 50, 4-Hydroxyimino-7-[3-[4-(3-methoxyphenyl)piperazin-1-yl]propyl]-1-methyl-4,5,6,7-tetrahydropyrrolo[2,3-c]azepin-8(1H)-one]
Anti α1 action (% of Control), 10^-7 M [1]: 38.8 % of Control
Anti α1 action (% of Control), 10^-8 M [1]: 57.6 % of Control
remaining activity at 1 µM [2]: 18.4%
remaining activity at 0.1 µM [2]: 60%

Cn1ccc2c1C(=O)N(CCCN1CCC(c3ccccc3)CC1)CCC2=NO [Compound No. 52, 4-Hydroxyimino-1-methyl-7-[3-(4-phenylpiperidin-1-yl)propyl]-4,5,6,7-tetrahydropyrrolo[2,3-c]azepin-8(1H)-one]
Anti α1 action (% of Control), 10^-7 M [1]: 62.6 % of Control
Anti α1 action (% of Control), 10^-8 M [1]: 97.2 % of Control
remaining activity at 1 µM [2]: 9.9%
remaining activity at 0.1 µM [2]: 39.1%

O=C(c1ccc(F)cc1)C1CCN(CCn2c(=O)[nH]c3ccccc3c2=O)CC1 [Ketanserin tartrate, reference compound]
inhibition at 0.1 µM [3]: 20%
